# Laboratory results published in patent US4474800A, “Epoxysuccinyl amino acid derivatives” (Taisho Pharmaceutical Co., Ltd., priority 1980, dated 1984).
# Legend:
# papain = biological target: T1, papain (Carica papaya, UniProt P00784); assay: Papain inhibitory activity (method of K. Hanada et al.); format: biochemical; details: papain 80 μg/ml, Sigma, twice crystallized
# T1 construct: purchased Sigma Chem. Co
# T1 sequence (P00784 134-345): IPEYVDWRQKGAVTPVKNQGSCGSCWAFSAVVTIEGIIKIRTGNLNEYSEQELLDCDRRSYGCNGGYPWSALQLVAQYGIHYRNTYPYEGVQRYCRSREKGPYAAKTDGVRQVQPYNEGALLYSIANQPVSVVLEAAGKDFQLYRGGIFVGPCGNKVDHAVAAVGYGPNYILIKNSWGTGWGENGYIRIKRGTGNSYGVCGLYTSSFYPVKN
# Method: Papain inhibitory activity of the compounds of the present invention was assayed by the method of K. Hanada et al. [Agric. Biol. Chem., 42, (3) 523 (1978)] using papain (80 μg/ml, Sigma Chem. Co.) after twice crystallization.
# [1] = biological target: T2, CANP prepared from a muscle of hereditary muscular dystrophy chicken (Gallus gallus, UniProt P00789); assay: CANP inhibitory activity (method of Ishiura et al.); format: biochemical; details: 50% inhibition in molar ratio to the enzyme
# T2 construct: from tissue; host or cells: muscle of hereditary muscular dystrophy chicken
# T2 sequence (P00789 1-705): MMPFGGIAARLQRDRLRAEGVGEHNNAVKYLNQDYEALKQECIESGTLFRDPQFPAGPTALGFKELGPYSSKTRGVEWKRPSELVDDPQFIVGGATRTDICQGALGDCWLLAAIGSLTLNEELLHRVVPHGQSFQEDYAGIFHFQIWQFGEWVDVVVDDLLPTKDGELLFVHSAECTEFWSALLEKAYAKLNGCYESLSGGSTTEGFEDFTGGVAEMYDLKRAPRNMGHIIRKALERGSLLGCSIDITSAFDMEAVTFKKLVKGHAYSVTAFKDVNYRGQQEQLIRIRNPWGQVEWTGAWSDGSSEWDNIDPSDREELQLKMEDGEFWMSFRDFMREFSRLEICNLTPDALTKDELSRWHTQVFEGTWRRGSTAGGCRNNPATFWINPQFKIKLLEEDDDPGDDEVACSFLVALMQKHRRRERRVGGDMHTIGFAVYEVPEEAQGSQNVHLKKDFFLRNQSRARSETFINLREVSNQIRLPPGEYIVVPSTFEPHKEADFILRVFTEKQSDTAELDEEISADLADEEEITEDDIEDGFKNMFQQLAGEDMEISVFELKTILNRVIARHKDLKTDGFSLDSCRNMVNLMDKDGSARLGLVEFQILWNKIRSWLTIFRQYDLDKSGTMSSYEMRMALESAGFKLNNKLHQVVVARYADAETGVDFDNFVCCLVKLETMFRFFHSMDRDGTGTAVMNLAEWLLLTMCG
# Method: Their muscular dystrophy inhibitory activity was assayed by the method of Ishiura et al., [J. of Biochem., 84, 225 (1978)] using CANP prepared from a muscle of hereditary muscular dystrophy chicken, and the resulting value for 50% inhibition in the molar ratios for the enzyme expressed as ID50 (mole/mole) is shown in Table 1 below.
# [2] = Concentration in rat plasma after subcutaneous administration; format: in vivo; details: sc, rats, 50 mg/kg, an hour after administration
# Method: The compounds of the present invention are better absorbed by the subcutaneous route in mammals such as rats or rabbits, as compared with the epoxysuccinic acid derivatives of the German Patent Laid Open Application described above and Chemical Abstracts, 87, 68129a (1977). To determine absorption, these compounds were administered subcutaneously to rats at a dose of 50 mg/kg, and the concentration of the test compound in rat plasma at an hour after the administration is shown in following Table 1.
structure (smiles),measurement,setting,value
"CC(C)C[C@H](NC(=O)C1OC1C(=O)OCc1ccccc1)C(=O)NCCCCCCCNC(=O)OCc1ccccc1 (mixture of isomers) [Compound 1, N-[N-(DL-3-trans-benzyloxycarbonyloxirane-2-carbonyl)-L-leucyl]-N'-benzyloxycarbonyl-1,7-diaminoheptane]",Papain inhibitory activity ID50 (amount of inhibitor for 50% inhibition),papain,0.302 µg
"CC(C)C[C@H](NC(=O)C1OC1C(=O)OCc1ccccc1)C(=O)NCCCCCNC(=O)OCc1ccccc1 (mixture of isomers) [Compound 2, N-[N-(DL-3-trans-benzyloxycarbonyloxirane-2-carbonyl)-L-leucyl]-N'-benzyloxycarbonyl-1,5-diaminopentane]",CANP Inhibitory Activity ID50 (mole/mole),[1],121 mole/mole
same,concentration at 1 h,[2],1500 ng/mL
same,Papain inhibitory activity ID50 (amount of inhibitor for 50% inhibition),papain,0.481 µg
"CC(C)C[C@H](NC(=O)C1OC1C(=O)OCc1ccccc1)C(=O)NCCNC(=O)OCc1ccccc1 (mixture of isomers) [Compound 3, N-[N-(DL-3-trans-benzyloxycarbonyloxirane-2-carbonyl)-L-leucyl]-N'-benzyloxycarbonyl-1,2-diaminoethane]",Papain inhibitory activity ID50 (amount of inhibitor for 50% inhibition),papain,0.203 µg
"CC(C)[C@H](NC(=O)C1OC1C(=O)OCc1ccccc1)C(=O)NCCCCNC(=O)OCc1ccccc1 (mixture of isomers) [Compound 4, N-[N-(DL-3-trans-benzyloxycarbonyloxirane-2-carbonyl)-L-valyl]-N'-benzyloxycarbonyl-1,4-diaminobutane]",CANP Inhibitory Activity ID50 (mole/mole),[1],113 mole/mole
same,concentration at 1 h,[2],1200 ng/mL
same,Papain inhibitory activity ID50 (amount of inhibitor for 50% inhibition),papain,0.436 µg
"CC[C@H](C)[C@H](NC(=O)C1OC1C(=O)OCc1ccccc1)C(=O)NCCCCNC(=O)OCc1ccccc1 (mixture of isomers) [Compound 5, N-[N-(DL-3-benzyloxycarbonyloxirane-2-carbonyl)-L-isoleucyl]-N'-benzyloxycarbonyl-1,4-diaminobutane]",CANP Inhibitory Activity ID50 (mole/mole),[1],92 mole/mole
same,concentration at 1 h,[2],1400 ng/mL
same,Papain inhibitory activity ID50 (amount of inhibitor for 50% inhibition),papain,0.323 µg
"CC(C)C[C@H](NC(=O)C1OC1C(=O)OC1CCCCC1)C(=O)NCCCCNC(=O)OCc1ccccc1 (mixture of isomers) [Compound 6, N-[N-(DL-3-trans-cyclohexyloxycarbonyloxirane-2-carbonyl)-L-leucyl]-N'-benzyloxycarbonyl-1,4-diaminobutane]",CANP Inhibitory Activity ID50 (mole/mole),[1],75 mole/mole
same,concentration at 1 h,[2],1500 ng/mL
same,Papain inhibitory activity ID50 (amount of inhibitor for 50% inhibition),papain,0.142 µg
"CC(C)C[C@H](NC(=O)C1OC1C(=O)OC1CCCC1)C(=O)NCCCCNC(=O)OCc1ccccc1 (mixture of isomers) [Compound 7, N-[N-(DL-3-trans-cyclopentyloxycarbonyloxirane-2-carbonyl)-L-leucyl]-N'-benzyloxycarbonyl-1,4-diaminobutane]",Papain inhibitory activity ID50 (amount of inhibitor for 50% inhibition),papain,0.164 µg
"CC(=O)NCCCCNC(=O)[C@H](CC(C)C)NC(=O)C1OC1C(=O)OCc1ccccc1 (mixture of isomers) [Compound 8, N-[N-(DL-3-trans-benzyloxycarbonyloxirane-2-carbonyl)-L-leucyl]-N'-acetyl-1,4-diaminobutane]",CANP Inhibitory Activity ID50 (mole/mole),[1],100 mole/mole
same,concentration at 1 h,[2],1800 ng/mL
same,Papain inhibitory activity ID50 (amount of inhibitor for 50% inhibition),papain,0.123 µg
"CC(C)C[C@H](NC(=O)C1OC1C(=O)OCc1ccccc1)C(=O)NCCCCNC(=O)c1ccccc1 (mixture of isomers) [Compound 9, N-[N-(DL-3-trans-benzyloxycarbonyloxirane-2-carbonyl)-L-leucyl]-N'-benzoyl-1,4-diaminobutane]",CANP Inhibitory Activity ID50 (mole/mole),[1],89 mole/mole
same,concentration at 1 h,[2],1300 ng/mL
same,Papain inhibitory activity ID50 (amount of inhibitor for 50% inhibition),papain,0.181 µg
"CC(C)C[C@H](NC(=O)C1OC1C(=O)OCc1ccccc1)C(=O)NCCCCNC(=O)OCc1ccccc1 (mixture of isomers) [Compound 10, N-[N-(DL-3-trans-benzyloxycarbonyloxirane-2-carbonyl)-L-leucyl]-N'-benzyloxycarbonyl-1,4-diaminobutane]",CANP Inhibitory Activity ID50 (mole/mole),[1],78 mole/mole
same,concentration at 1 h,[2],1600 ng/mL
same,Papain inhibitory activity ID50 (amount of inhibitor for 50% inhibition),papain,0.260 µg
"CC(C)C[C@H](NC(=O)C1OC1C(=O)O)C(=O)NCCCCNC(=O)OCc1ccccc1 (mixture of isomers) [Compound 11, N-[N-(DL-3-trans-carboxyoxirane-2-carbonyl)-L-leucyl]-N'-benzyloxycarbonyl-1,4-diaminobutane]",CANP Inhibitory Activity ID50 (mole/mole),[1],19 mole/mole
same,concentration at 1 h,[2],13000 ng/mL
same,Papain inhibitory activity ID50 (amount of inhibitor for 50% inhibition),papain,0.118 µg
"CC(C)C[C@H](NC(=O)C1OC1C(=O)O)C(=O)NCCCCN (mixture of isomers) [Compound 12, N-[N-(DL-3-trans-carboxyoxirane-2-carbonyl)-L-leucyl]-1,4-diaminobutane]",CANP Inhibitory Activity ID50 (mole/mole),[1],55 mole/mole
same,concentration at 1 h,[2],25000 ng/mL
same,Papain inhibitory activity ID50 (amount of inhibitor for 50% inhibition),papain,0.106 µg
"CCOC(=O)[C@H]1O[C@@H]1C(=O)O (relative stereo) [A, Ethyl hydrogen epoxysuccinate, reference compound]",CANP Inhibitory Activity ID50 (mole/mole),[1],"5,400 mole/mole"
"O=C(O)[C@H]1O[C@@H]1C(=O)OCc1ccccc1 (relative stereo) [B, Benzyl hydrogen epoxysuccinate, reference compound]",CANP Inhibitory Activity ID50 (mole/mole),[1],410 mole/mole
"CCOC(=O)C1OC1C(=O)N[C@@H](CC(C)C)C(=O)OCc1ccccc1 (stereo partly drawn) [C, N--(3ethoxy-carbonyloxirane-2-carbonyl)-L-leucine benzyl ester, reference compound]",CANP Inhibitory Activity ID50 (mole/mole),[1],580 mole/mole
"CC(C)C[C@H](NC(=O)C1OC1C(=O)O)C(=O)O (stereo partly drawn) [E, N--(3carboxyoxirane-2-carbonyl)-L-leucine, reference compound]",CANP Inhibitory Activity ID50 (mole/mole),[1],"4,600 mole/mole"
